By logD is commonly meant the decadic logarithm of the distribution of all forms, ionised or not, between an organic phase and buffer at a given pH. A lower logD goes with a more hydrophilic compound. What is called logP is a log measure of how a compound divides between an organic and an aqueous phase.

The nature of series [1]: Octanol-water partition coefficient, log P of the compound at pH 7.0.
Series [2] is described as follows: Octanol-water partition coefficient, log P of the compound by deuterium-free NMR method. It counts as physicochemical.
Series [3] is described as follows: Octanol-water partition coefficient, log P of the compound. Format: physicochemical.
A short description of series [4]: Octanol-water partition coefficient, log P of the compound after partitioning between 0.1 M NaOH and 1-octanol by deuterium-free NMR method. Format: physicochemical. To be noted: 1-octanol/0.1 M NaOH.

As to `O=C1CN(/N=C/c2ccc([N+](=O)[O-])o2)C(=O)N1` [NITROFURANTOIN], the pH-dependent lipophilicity (logD) in series [1] is -0.68. Moreover, the lipophilicity (logP) in series [2] is -0.36. For the compound `CC(=O)Oc1ccccc1C(=O)O` [ASPIRIN], the logP in series [2] is 1.15.

As for `CCOc1ccc(NC(C)=O)cc1` [PHENACETIN], in series [2], the logP turned out to be 1.45. Take `CC(=O)Nc1ccc(O)cc1` [ACETAMINOPHEN]: the results for the logP in series [3] and in series [2] were 0.33 and 0.29, respectively. The matching figures for `CC[C@H]1OC(=O)[C@H](C)[C@@H](O[C@H]2C[C@@](C)(OC)[C@@H](O)[C@H](C)O2)[C@H](C)[C@@H](O[C@@H]2O[C@H](C)C[C@H](N(C)C)[C@H]2O)[C@](C)(O)C[C@@H](C)C(=O)[C@H](C)[C@@H](O)[C@]1(C)O` [ERYTHROMYCIN]: 2.54 and 2.01. For the compound `CCN(CC)CCOC(=O)c1ccc(N)cc1` [PROCAINE], the figures for the logP in series [3] and in series [4] were 0.88 and 0.9, respectively.

Values taken from ChEMBL document CHEMBL1268893, “A practical deuterium-free NMR method for the rapid determination of 1-octanol/water partition coefficients of pharmaceutical agents” (Bioorg Med Chem Lett, 2010).
